Data from US20110230478A1 (Bayer ScienceCrop AG, priority 2008, published 2011).
Read-outs that look alike come from different tables or passages of the source. Values belong to the compound of their own block, whether it stands above or below them.

Test: logP by HPLC on reversed-phase columns (C 18), EEC Directive 79/831 Annex V.A8
Type: physicochemical
[1] = method marker [a], footnote not given
[2] = reversed-phase HPLC column (C 18), pH 2.3, pH 2.3, 0.1% aqueous phosphoric acid and acetonitrile, read-out: logP [a]
[3] = values marked [b], footnote not given
[4] = method marker [b] (compound 257: pH2.7)
[5] = method marker [b], footnote not given, compound 68 value matches logP (pH 2.3)
[6] = values marked [c], footnote not given

- logP [3]: 2.55[b]
Structure (SMILES): COCC(C)Nc1nc(Nc2ccc(N(C(=O)C(F)(F)F)C3CC3)cc2)ncc1Cl (stereo not shown) [Example 164]

- logP [5]: 1.54[b]
- logP (method marker [c], footnote not given): 2.56[c];
Structure (SMILES): CC(C)Nc1nc(Nc2cccc(CN3CCN(C)C3=O)c2)ncc1Cl [Example 48]

- logP [3]: 2.55[b]
Structure (SMILES): COCC(Nc1nc(Nc2ccccc2)ncc1Br)C(C)C (stereo not shown) [Example 224]

- logP [1]: 1.16[a]
Structure (SMILES): CCN(CC)c1ccc(Nc2ncc(Cl)c(NC(C)COC)n2)cc1 (stereo not shown) [Example 13]

- logP [1]: 1.41[a]
Structure (SMILES): COCCNc1nc(Nc2ccccc2)ncc1Cl [Example 3]

- logP [1]: 1.41[a];
- logP [5]: 1.41[b]
Structure (SMILES): COCCNc1nc(Nc2ccccc2)ncc1Cl.Cl [Example 61]

- logP [3]: 2.21[b]
Structure (SMILES): CC(C)Nc1nc(Nc2cccc(C#N)c2)ncc1Cl [Example 180]

- logP [b] (LC-MS, pH 2.7, 0.1% aqueous formic acid and acetonitrile): 1.17[b]
Structure (SMILES): COCC(C)Nc1nc(Nc2ccc(NC3CC3)nc2)ncc1Cl (stereo not shown) [II-3]

- logP [1]: 2.13[a];
- logP [5]: 2.13[b]
Structure (SMILES): COCCNc1nc(Nc2cccc(Cl)c2)ncc1Cl [Example 2]

- logP [4]: 1.89[b]
- logP (method marker [c]): 3.7[c];
Structure (SMILES): CC(C)Nc1nc(Nc2ccccc2)ncc1Br [Example 247]

- logP [5]: 1.8[b]
Structure (SMILES): COCC(C)Nc1nc(Nc2ccc(F)cc2)ncc1Cl (stereo not shown) [Example 69]

- logP [3]: 1.37[b]
Structure (SMILES): COCC(C)Nc1nc(Nc2ccc(C)c(NC(C)=O)c2)ncc1Cl (stereo not shown) [Example 167]

- logP [1]: 2.59[a]
Structure (SMILES): CSC[C@H](C)Nc1nc(Nc2ccc(S(=O)(=O)N(C)C)cc2)ncc1Cl [Example 30]

- logP [5]: 1.63[b]
Structure (SMILES): COCC(C)Nc1nc(Nc2ccc(OC)cc2)ncc1Br (stereo not shown) [Example 110]

- logP [3]: 1.38[b]
Structure (SMILES): CNC(=O)c1ccc(Nc2ncc(Cl)c(NC(C)COC)n2)cc1 (racemic) [Example 135]

- logP (values marked [a], pH 2.3): 2.68[a];
- logP [6]: 4.18[c]
Structure (SMILES): CSCC(C)(C)Nc1nc(Nc2ccccc2)ncc1Cl [Example 174]

- logP [3]: 1.46[b]
Structure (SMILES): CNC(=O)c1ccc(Nc2ncc(Br)c(NC(C)COC)n2)cc1 (racemic) [Example 127]

- logP [1]: 1.79[a]
Structure (SMILES): CC(=O)c1cccc(Nc2ncc(Cl)c(NC(C)C)n2)c1.Cl [Example 50]

- logP [5]: 2.16[b]
Structure (SMILES): COCC(C)Nc1nc(Nc2ccc(F)cc2F)ncc1Br (stereo not shown) [Example 73]

- logP [3]: 1.59[b]
Structure (SMILES): COCC(C)Nc1nc(Nc2ccc(NC(=O)C(C)C)cc2)ncc1Cl (stereo not shown) [Example 169]

- logP [3]: 1.81[b]
Structure (SMILES): CCOC(=O)Nc1cccc(Nc2ncc(Cl)c(NC(C)C)n2)c1 [Example 216]

- logP [5]: 2.36[b]
Structure (SMILES): CCC(=O)c1ccc(Nc2ncc(Cl)c(NC(C)COC)n2)cc1 (stereo not shown) [Example 104]

- logP [5]: 3.85[b]
Structure (SMILES): COCC(C)Nc1nc(Nc2ccc3c(c2)OC(F)(F)C(F)(F)O3)ncc1Cl (stereo not shown) [Example 92]

- logP [3]: 1.51[b]
Structure (SMILES): COCC(C)Nc1nc(Nc2ccc(C(=O)N(C)C)cc2)ncc1Cl (stereo not shown) [Example 148]

- logP [3]: 1.8[b]
Structure (SMILES): COCC(C)Nc1nc(Nc2ccc(C(=O)Nc3ccccc3)cc2)ncc1Cl (racemic) [Example 141]

- logP [5]: 2.16[b]
Structure (SMILES): COCC(C)Nc1nc(Nc2cccc(S(=O)(=O)N3CCOCC3)c2)ncc1Br (stereo not shown) [Example 120]

- logP [5]: 4.08[b]
Structure (SMILES): COCC(C)Nc1nc(Nc2cc(Cl)cc(Cl)c2)ncc1Cl (stereo not shown) [Example 94]

- logP [3]: 1.46[b]
Structure (SMILES): COCC(C)Nc1nc(Nc2ccc(NC(C)=O)c(OC)c2)ncc1Br (racemic) [Example 125]

- logP [5]: 1.97[b]
Structure (SMILES): COCC(C)Nc1nc(Nc2ccc3c(c2)CCC3=O)ncc1Cl (stereo not shown) [Example 103]

- logP [5]: 1.87[b]
Structure (SMILES): COCC(C)Nc1nc(Nc2cccc(CC(=O)OC)c2)ncc1Br (stereo not shown) [Example 113]

- logP [3]: 2.06[b]
Structure (SMILES): COCC(C)Nc1nc(Nc2ccc(SC)cc2)ncc1Cl (stereo not shown) [Example 149]

- logP [1]: 2.04[a]
Structure (SMILES): CSCC(C)Nc1nc(Nc2ccccc2)ncc1Cl (stereo not shown) [Example 37]

- logP [5]: 2.04[b]
Structure (SMILES): CCOc1cccc(Nc2ncc(Cl)c(NC(C)COC)n2)c1 (stereo not shown) [Example 96]

- logP [3]: 1.9[b]
Structure (SMILES): COCC(C)Nc1nc(Nc2cccc(NC(=O)C(C)(C)C)c2)ncc1Cl (stereo not shown) [Example 147]

- logP (values marked [a], pH 2.3): 2.88[a]
Structure (SMILES): CCC(C)N(C)c1nc(Nc2cccc(C(C)=O)c2)ncc1Cl (stereo not shown) [Example 179]

- logP [5]: 2.3[b]
Structure (SMILES): COCC(C)Nc1nc(Nc2cccc(SC)c2)ncc1Br (stereo not shown) [Example 77]

- logP [4]: 2.05[b]
Structure (SMILES): CCC(C)Nc1nc(Nc2ccccc2)ncc1Cl (stereo not shown) [Example 296]

- logP [1]: 1.72[a]
Structure (SMILES): COCC(C)Nc1nc(Nc2cccc(C(C)=O)c2)ncc1Cl (stereo not shown) [Example 15]

- logP [5]: 3.14[b]
Structure (SMILES): COCC(C)Nc1nc(Nc2cccc(OC(F)(F)F)c2)ncc1Cl (stereo not shown) [Example 87]

- logP [3]: 1.87[b]
Structure (SMILES): COCC(C)Nc1nc(Nc2ccc(N(C)C(=O)C(C)(C)C)cc2)ncc1Cl (stereo not shown) [Example 163]

- logP [5]: 2.37[b]
Structure (SMILES): COCC(C)Nc1nc(Nc2cccc(S(=O)(=O)N(C)C)c2)ncc1Br (stereo not shown) [Example 72]

- logP [3]: 1.34[b]
Structure (SMILES): COCC(C)Nc1nc(Nc2ccc(O)c(F)c2)ncc1Cl (stereo not shown) [Example 160]

- logP [5]: 2.09[b]
Structure (SMILES): COCC(C)Nc1nc(Nc2ccc(Cl)c(S(C)(=O)=O)c2)ncc1Cl (stereo not shown) [Example 100]

The next lines start with the compound.

Structure (SMILES): CNc1nc(Nc2ccc(S(=O)(=O)N(C)C)cc2)ncc1Cl [Example 26]
- logP [1]: 1.61[a]

Structure (SMILES): CN1CCN(Cc2cccc([N+](=O)[O-])c2)C1=O [1-methyl-3-(3-nitrobenzyl)imidazolidin-2-one]
- chromatographic logP [2]: 2.03

Structure (SMILES): COc1cc(Nc2ncc(Cl)c(NC3CCCCC3)n2)cc(OC)c1OC [Example 261]
- logP [4]: 2.26[b]

Structure (SMILES): Brc1cnc(Nc2ccccc2)nc1NC1CCCC1 [Example 253]
- logP [4]: 2.47[b]

Structure (SMILES): CC(C)CC(C)N(C)c1nc(Nc2ccccc2)ncc1Br (stereo not shown) [Example 233]
- logP (values marked [d], footnote not given): 3.39[d]

Structure (SMILES): COCCNc1nc(Nc2ccc(S(=O)(=O)N(C)C)cc2)ncc1Cl [Example 6]
- logP [1]: 1.9[a];
- logP [5]: 1.9[b]

Structure (SMILES): CC(=O)c1cccc(Nc2ncc(Cl)c(NC3CCCCC3)n2)c1.Cl [Example 249]
- logP [4]: 2.53[b]

Structure (SMILES): CC(C)Nc1nc(Nc2cccc(CS(=O)(=O)N(C)C)c2)ncc1Cl [Example 250]
- logP [4]: 1.69[b]
- logP (method marker [c]): 2.85[c];

Structure (SMILES): CCOCCN(C)c1nc(Nc2ccccc2)ncc1Br [Example 237]
- logP [3]: 2.55[b]
- logP [6]: 3.95[c];

Structure (SMILES): Nc1cccc(CS(=O)(=O)NCc2ccccc2)c1 [IV-8, 1-(3-aminophenyl)-N-benzylmethanesulphonamide]
- chromatographic logP [2]: 1.32

Structure (SMILES): CNc1nc(Nc2ccccc2)ncc1Cl [Example 35]
- logP [1]: 1.27[a]

Structure (SMILES): CCC(CO)Nc1nc(Nc2ccccc2)ncc1Cl (stereo not shown) [Example 18]
- logP [1]: 1.41[a]

Structure (SMILES): CCCCCNc1nc(Cl)ncc1Cl [Example V-31, 2,5-dichloro-N-(pentyl)pyrimidine-4-amine]
- chromatographic logP [2]: 3.51

Structure (SMILES): CCCNc1nc(Nc2ccccc2)ncc1Cl [Example 280]
- logP [4]: 1.69[b]

Structure (SMILES): CC(C)(C)Nc1nc(Nc2ccc(S(=O)(=O)N3CCOCC3)cc2)ncc1Cl [Example 64]
- logP [1]: 2.84[a]

Structure (SMILES): CC(=O)c1ccc(Nc2ncc(Cl)c(NC(C)C)n2)cc1 [Example 200]
- logP [3]: 2.06[b]

Structure (SMILES): CC(C)N(C)c1nc(Cl)ncc1Cl [Example V-11, 2,5-dichloro-N-methyl-N-(propan-2-yl)pyrimidine-4-amine]
- chromatographic logP (pH 2.3, logP [a]): 3.16

Structure (SMILES): Clc1cnc(Nc2ccccc2)nc1NC1CCCCC1 [Example 259]
- logP [4]: 2.53[b]

Structure (SMILES): CCN(C)c1nc(Nc2ccccc2)ncc1Cl [Example 241]
- logP [3]: 2.11[b]
- logP [6]: 3.85[c];

Structure (SMILES): CC(C)Nc1nc(Nc2ccc(SC(F)F)cc2)ncc1Cl [Example 212]
- logP [3]: 2.88[b]

Structure (SMILES): CC(=O)c1cccc(Nc2ncc(Cl)c(N(C)C)n2)c1.Cl [Example 42]
- logP [1]: 1.84[a]

Structure (SMILES): CC(C)(C)CNc1nc(Nc2ccccc2)ncc1Cl [Example 273]
- logP [4]: 2.48[b]

Structure (SMILES): OCCNc1nc(Cl)ncc1Cl [Example V-5, 2,5-dichloro-N-(2-hydroxyethyl)pyrimidine-4-amine]
- chromatographic logP [2]: 0.97

Structure (SMILES): CC(C)CN(C)c1nc(Nc2ccccc2)ncc1Cl [Example 270]
- logP [4]: 3[b]

Structure (SMILES): COc1cc(Nc2ncc(Cl)c(NCCO)n2)cc(OC)c1OC.Cl [Example 55]
- logP [1]: 1.09[a]

Structure (SMILES): CC(C)CN(C)c1nc(Cl)ncc1Cl [Example V-26, 2,5-dichloro-N-methyl-N-(2-methylpropyl)pyrimidine-4-amine]
- chromatographic logP [2]: 3.78

Structure (SMILES): Cc1cnc(Nc2ccccc2)nc1NC(C)(C)C [Example 297]
- logP [4]: 1.48[b]

Structure (SMILES): CCC(CC)Nc1nc(Cl)ncc1Cl [Example V-23]
- chromatographic logP (pH 2.3, 0.1% aqueous phosphoric acid and acetonitrile, read-out: logP [a]): 3.39

Structure (SMILES): CC(C)c1cccc(Nc2ncc(C(F)(F)F)c(Cl)n2)c1 [VIII-4, 4-Chloro-N-[3-(propan-2-yl)phenyl]-5-(trifluoromethyl)pyrimidine-2-amine]
- chromatographic logP [2]: 4.87

Structure (SMILES): COCCNc1nc(Nc2cc(OC)cc(OC)c2)ncc1Cl [Example 4]
- logP [1]: 1.67[a]

Structure (SMILES): CCC(CO)Nc1nc(Nc2cc(OC)cc(OC)c2)ncc1Cl (stereo not shown) [Example 19]
- logP [1]: 1.64[a]

Structure (SMILES): CC(=O)N(C)c1ccc(Nc2ncc(Cl)c(NC(C)C)n2)cc1 [Example 192]
- logP [3]: 1.51[b]

Structure (SMILES): CCCNc1nc(Cl)ncc1Cl [Example V-21, 2,5-dichloro-N-propylpyrimidine-4-amine]
- chromatographic logP [2]: 2.75

Structure (SMILES): CC(C)c1ccc(Nc2ncc(Cl)c(NCCO)n2)cc1.Cl [Example 58]
- logP [1]: 1.6[a]

Structure (SMILES): C=C(C)CNc1nc(Nc2ccccc2)ncc1Cl [Example 288]
- logP [4]: 2.62[b]

Structure (SMILES): FC(F)(F)OCCNc1nc(Nc2ccccc2)ncc1Cl [Example 177]
- logP [3]: 2.26[b]

Structure (SMILES): CCN(C(C)=O)c1ccc(Nc2ncc(Cl)c(NC(C)C)n2)cc1 [Example 191]
- logP [3]: 1.66[b]

Structure (SMILES): COCC(C)Nc1nc(Cl)ncc1Cl (stereo not shown) [Example V-1, 2,5-Dichloro-N-(3-methoxypropan-2-yl)pyrimidine-4-amine]
- chromatographic logP (pH 2.3, logP [a]): 2.1

Structure (SMILES): CC(C)Nc1nc(Cl)ncc1Cl [Example V-9, 2,5-dichloro-N-(propan-2-yl)pyrimidine-4-amine]
- chromatographic logP (pH 2.3, logP [a]): 2.46

Structure (SMILES): C=CCCNc1nc(Nc2ccccc2)ncc1Cl [Example 294]
- logP [4]: 1.87[b]

Structure (SMILES): CC(C)(C)Nc1nc(Nc2ccccc2)ncc1Cl [Example 34]
- logP [1]: 2.17[a]

Structure (SMILES): CCC(C)CNc1nc(Nc2ccccc2)ncc1Cl (stereo not shown) [Example 276]
- logP [4]: 2.37[b]
